Test results: publication PMC10606833, “A Comprehensive Study on the Chemical Characterization and Neuroprotective Evaluation of Pracaxi Nuts Extracts Obtained by a Sustainable Approach” (Foods, 2023)

What was measured:
[1] = ROS scavenging capacity, oxygen radical absorbance capacity (ORAC) assay; type: biochemical; conditions: optimized PLE extracts and reference standard (Table 2)
Description: (§1) The ROS scavenging capacity of the PLE extracts obtained from pracaxi nuts cake was measured using the oxygen radical absorbance capacity (ORAC) assay previously described. Ascorbic acid and 10% EtOH (v/v) were used as reference standard and blank control solutions, respectively. Complementary, the RNS scavenging capacity was estimated referring to the nitric oxide (NO) radical scavenging assay. Ascorbic acid was used as the reference standard and 25% EtOH was used as blank control solution. The AChE and BChE inhibitory activities of pracaxi nuts cake PLE extracts were estimated according to the fluorescent enzyme kinetic method described by Sanchez-Martinez et al.. […] Finally, the LOX inhibitory activity of pracaxi nuts cake PLE extracts was determined as described in [26], with slight modifications.

[2] = RNS scavenging capacity, nitric oxide (NO) radical scavenging assay; type: biochemical; conditions: optimized PLE extracts and reference standard (Table 2)
Description: as §1

Structure (SMILES): O=C1O[C@H]([C@@H](O)CO)C(O)=C1O [Ascorbic acid, ascorbic acid]
- ROS (IC50) [1]: 3.2 ± 0.2 µg/mL
- RNS (IC50) [2]: 1120 ± 16 µg/mL
